Earlier results, collected in patent publication US20130281718A1, “HIGH-FLUIDITY NON-CAKING DIANHYDROHEXITOL PELLETS” (ROQUETTE FRERES, priority 2010, published 2013).

Conditions: addition of 0.005% by weight of butyl cellulose acetate; pressure of 0.23 bar after forming

Time without caking: 30 days
SMILES: CC(C)(CO)CO [neopentyl glycol]
